From patent US10301304B2, “Selective inhibitor of phosphatidylinositol 3-kinase-gamma” (VERTEX PHARMACEUTICALS INCORPORATED, priority 2013, dated 2019)
Read-outs that look alike come from different tables or passages of the source.

Experiments:
[1] = molecular target: T1, human P-gp (MDR) (Homo sapiens, UniProt P08183); experiment: Efflux in MDCK-MDR1 cell line; assay type: in vitro ADME; conditions: MDCK overexpressing human P-gp, in words
T1 construct: expressed in transfected cells; host or cells: MDCK (Madin-Darby canine kidney) cells, MDCK-MDR1
T1 sequence (P08183 whole entry): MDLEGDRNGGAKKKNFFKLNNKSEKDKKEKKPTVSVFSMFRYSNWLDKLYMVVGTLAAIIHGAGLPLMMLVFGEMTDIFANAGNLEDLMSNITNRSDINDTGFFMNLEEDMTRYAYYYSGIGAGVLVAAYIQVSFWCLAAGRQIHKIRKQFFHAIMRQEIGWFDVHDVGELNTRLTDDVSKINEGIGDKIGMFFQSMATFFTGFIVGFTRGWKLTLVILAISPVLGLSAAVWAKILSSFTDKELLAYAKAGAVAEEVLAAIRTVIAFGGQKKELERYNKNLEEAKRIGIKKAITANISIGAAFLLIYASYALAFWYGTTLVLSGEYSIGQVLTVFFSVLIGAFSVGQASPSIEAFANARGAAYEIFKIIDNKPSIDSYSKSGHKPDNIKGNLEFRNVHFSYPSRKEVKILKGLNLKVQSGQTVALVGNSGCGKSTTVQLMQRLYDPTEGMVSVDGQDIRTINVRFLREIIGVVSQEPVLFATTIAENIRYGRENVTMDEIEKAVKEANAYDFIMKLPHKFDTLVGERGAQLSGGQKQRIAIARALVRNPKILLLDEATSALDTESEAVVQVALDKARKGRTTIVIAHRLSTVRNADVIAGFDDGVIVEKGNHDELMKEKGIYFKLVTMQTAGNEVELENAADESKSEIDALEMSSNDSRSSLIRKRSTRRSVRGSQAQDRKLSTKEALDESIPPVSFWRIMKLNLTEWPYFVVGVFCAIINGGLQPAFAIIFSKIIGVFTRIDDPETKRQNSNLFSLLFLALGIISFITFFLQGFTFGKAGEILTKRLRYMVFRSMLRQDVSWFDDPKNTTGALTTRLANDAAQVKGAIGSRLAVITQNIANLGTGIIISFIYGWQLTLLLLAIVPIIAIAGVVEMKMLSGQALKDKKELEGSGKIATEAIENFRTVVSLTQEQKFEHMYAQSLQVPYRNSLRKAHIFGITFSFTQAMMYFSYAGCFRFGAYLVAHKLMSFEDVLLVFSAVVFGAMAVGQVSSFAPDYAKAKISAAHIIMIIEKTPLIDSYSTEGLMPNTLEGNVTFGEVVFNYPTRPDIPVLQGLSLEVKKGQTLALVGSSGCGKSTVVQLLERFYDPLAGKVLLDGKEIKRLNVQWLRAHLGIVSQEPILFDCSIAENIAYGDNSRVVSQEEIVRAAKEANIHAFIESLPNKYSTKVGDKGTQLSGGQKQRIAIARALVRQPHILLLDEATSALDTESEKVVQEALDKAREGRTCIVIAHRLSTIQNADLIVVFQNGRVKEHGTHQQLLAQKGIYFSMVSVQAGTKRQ
Description: (§1) The permeability of Compound 1 was evaluated using both Caco-2 and MadinDarby canine kidney (MDCK) wild-type cell lines. Cells were exposed to drug in buffer on the apical side (measuring permeability in the A-to-B direction) or basolateral side (measuring permeability in the B-to-A direction) and incubated at 37° C. for one hour. Permeability was high in the A-to-B direction in both the MDCK and Caco-2 cell lines (33 and 18×10^−6 cm/sec, respectively).
(§2) An assessment of whether Compound 1 is a substrate of efflux transporters was conducted by using the MDCK cell line that is overexpressed with human P-gp (MDR).

[2] = molecular target: T2, P-gp (MDR1) (Homo sapiens, UniProt P08183); experiment: Efflux in MDCK-MDR1 cell line; assay type: in vitro ADME; conditions: human; for recovery at 1 h, 1 μM: MDCK-MDR1, MDCK-MDR1, 1 μM
T2 construct: expressed in transfected cells; host or cells: MDCK (Madin-Darby canine kidney) cells, MDCK-MDR1
T2 sequence (P08183 whole entry): as above
Description: as §1, §2

[3] = tested on: HUVECs; experiment: HUVEC Proliferation Assay; assay type: cell-based, human; conditions: for IC50: Homo sapiens, HUVEC
Description: PI3Ks are important signaling molecules downstream of a number of growth factors that regulate cell survival, growth and cell cycle entry. Both PI3K-alpha and PI3K-beta isoforms regulate cell cycle entry; inhibition of either isoform leads to reduced cell growth. HUVECs are primary human umbilical vein endothelial cells which express both the PI3Kα and PI3Kβ isoforms. Inhibition of either or both PI3K-alpha or PI3K-beta isoforms will inhibit the cell growth of HUVECs. Compounds are plated onto HUVECs, cell proliferation/viability is measure 96 hours post compound treatment using cell titer-glo to measure the ATP content of the cells in the well. Lack of or reduced proliferation is a measure of the extent of PI3K-alpha and/or PI3K-beta inhibition.

[4] = Tissue Distribution in Rats; assay type: in vivo, rat; conditions: 5 mg/kg oral; for Kp at 0.5 h / Kp at 2 h / Kp at 7 h / Kp at 24 h / Kp at 48 h / Kp at 0.5 hr / Kp at 2 hr / Kp at 7 hr / Kp at 24 hr / Kp at 48 hr: male
Description: Compound 1 distributed well into most tissues after an oral dose of 5 mg/kg administered to male rats. […] The tissue to plasma ratio followed the trend of liver>kidney>heart>lung>spleen>brain>CSF. The elimination kinetics of Compound 1 in each examined organ followed plasma kinetics. There was no evidence for tissue accumulation of Compound 1 after a single dose administration.

Cc1cc(-c2cncc([C@@H](O)C(F)(F)F)c2)nc2c1C(=O)N(c1cnn(CC(F)F)c1)C2(C)C [Compound 1, (R)-6-(1-(2,2-difluoroethyl)-1H-pyrazol-4-yl)-4,7,7-trimethyl-2-(5-(2,2,2-trifluoro-1-hydroxyethyl)pyridin-3-yl)-6,7-dihydro-5H-pyrrolo[3,4-b]pyridin-5-one]
substrate of efflux transporters [1]: P-gp substrate
recovery at 1 h, 1 μM ([2]; A > B): 97%
recovery at 1 h, 1 μM ([2]; B > A): 87%
efflux ratio at 1 h, 1 μM ([2]; MDCK-MDR1, 1 μM): 35.1
Papp A→B at 1 h, 1 μM ([2]; MDCK-MDR1, 1 μM, A > B): 0.98 ×10⁻⁶ cm/s
Papp B→A at 1 h, 1 μM ([2]; MDCK-MDR1, 1 μM, B > A): 34.3 ×10⁻⁶ cm/s
selectivity over PI3K-alpha/beta ([3]; HUVEC proliferation): > 74 fold
IC50 ([3]; 96 h, HUVEC Proliferation, 96 hours, PI3K-alpha/beta dependent, read-out: IC50 Avg +/− SD): > 19 µM
IC50 ([3]; footnote * of Table 4, no anchor in the table, read-out: Individual assay data (IC50)): > 20 µM
selectivity over PI3K-alpha and PI3K-beta in cell based assays ([3]; summary): 40-80 fold
Cmax, brain ([4]; male rats): 111 ng/g
Cmax, kidney ([4]; male rats): 4770 ng/g
Cmax, liver ([4]; male rats): 11400 ng/g
tissue to plasma ratio trend ([4]; male rats, in words): liver>kidney>heart>lung>spleen>brain>CSF
Kp at 0.5 h ([4]; CSF (relative to plasma), rat, 0.5 hr post dose, read-out: Tissue to Plasma Ratio, CSF): 0.01
Kp at 2 h ([4]; CSF (relative to plasma), rat, 2 hr post dose, read-out: Tissue to Plasma Ratio, CSF): 0.01
Kp at 7 h ([4]; CSF (relative to plasma), rat, 7 hr post dose, read-out: Tissue to Plasma Ratio, CSF): 0.01
Kp at 24 h ([4]; CSF (relative to plasma), rat, 24 hr post dose, read-out: Tissue to Plasma Ratio, CSF): 0.01
Kp at 7 h ([4]; brain (relative to plasma), rat, 7 hr post dose, read-out: Tissue to Plasma Ratio, Brain): 0.05
Kp at 24 h ([4]; brain (relative to plasma), rat, 24 hr post dose, read-out: Tissue to Plasma Ratio, Brain): 0.06
Kp at 0.5 h ([4]; brain, rat, 0.5 hr post dose, read-out: Tissue to Plasma Ratio, Brain): 0.04
Kp at 2 h ([4]; brain, rat, 2 hr post dose, read-out: Tissue to Plasma Ratio, Brain): 0.07
Kp at 48 h ([4]; brain, rat, 48 hr post dose, read-out: Tissue to Plasma Ratio, Brain): 0.07
Kp at 0.5 hr ([4]; heart, rat, 0.5 hr post dose, read-out: Tissue to Plasma Ratio, Heart): 0.98
Kp at 2 hr ([4]; heart, rat, 2 hr post dose, read-out: Tissue to Plasma Ratio, Heart): 1.67
Kp at 7 hr ([4]; heart, rat, 7 hr post dose, read-out: Tissue to Plasma Ratio, Heart): 1.4
Kp at 24 hr ([4]; heart, rat, 24 hr post dose, read-out: Tissue to Plasma Ratio, Heart): 1.46
Kp at 48 hr ([4]; heart, rat, 48 hr post dose, read-out: Tissue to Plasma Ratio, Heart): 1.39
Kp at 0.5 hr ([4]; kidney, rat, 0.5 hr post dose, read-out: Tissue to Plasma Ratio, Kidney): 1.75
Kp at 2 hr ([4]; kidney, rat, 2 hr post dose, read-out: Tissue to Plasma Ratio, Kidney): 2.54
Kp at 7 hr ([4]; kidney, rat, 7 hr post dose, read-out: Tissue to Plasma Ratio, Kidney): 2.16
Kp at 24 hr ([4]; kidney, rat, 24 hr post dose, read-out: Tissue to Plasma Ratio, Kidney): 3.03
Kp at 48 hr ([4]; kidney, rat, 48 hr post dose, read-out: Tissue to Plasma Ratio, Kidney): 4.76
Kp at 0.5 h ([4]; liver, rat, 0.5 hr post dose, read-out: Tissue to Plasma Ratio, Liver): 4.96
Kp at 2 h ([4]; liver, rat, 2 hr post dose, read-out: Tissue to Plasma Ratio, Liver): 6.99
Kp at 7 h ([4]; liver, rat, 7 hr post dose, read-out: Tissue to Plasma Ratio, Liver): 5.13
Kp at 24 h ([4]; liver, rat, 24 hr post dose, read-out: Tissue to Plasma Ratio, Liver): 5.69
Kp at 48 hr ([4]; liver, rat, 48 hr post dose, read-out: Tissue to Plasma Ratio, Liver): 5.32
Kp at 0.5 h ([4]; lung, rat, 0.5 hr post dose, read-out: Tissue to Plasma Ratio, Lung): 1.24
Kp at 2 h ([4]; lung, rat, 2 hr post dose, read-out: Tissue to Plasma Ratio, Lung): 1.38
Kp at 7 h ([4]; lung, rat, 7 hr post dose, read-out: Tissue to Plasma Ratio, Lung): 1.22
Kp at 24 h ([4]; lung, rat, 24 hr post dose, read-out: Tissue to Plasma Ratio, Lung): 1.17
Kp at 48 h ([4]; lung, rat, 48 hr post dose, read-out: Tissue to Plasma Ratio, Lung): 1.31
Kp at 0.5 h ([4]; spleen, rat, 0.5 hr post dose, read-out: Tissue to Plasma Ratio, Spleen): 0.74
Kp at 2 h ([4]; spleen, rat, 2 hr post dose, read-out: Tissue to Plasma Ratio, Spleen): 1.15
Kp at 7 h ([4]; spleen, rat, 7 hr post dose, read-out: Tissue to Plasma Ratio, Spleen): 0.81
Kp at 24 h ([4]; spleen, rat, 24 hr post dose, read-out: Tissue to Plasma Ratio, Spleen): 0.93
Kp at 48 h ([4]; spleen, rat, 48 hr post dose, read-out: Tissue to Plasma Ratio, Spleen): 0.88
Compound 1 Concentration, Brain ([4]; rat, 0.5 hr post dose): 74 ng/ml or ng/g
Compound 1 Concentration, CSF ([4]; rat, 0.5 hr post dose): 20 ng/ml or ng/g
Compound 1 Concentration, Heart ([4]; rat, 0.5 hr post dose): 1730 ng/ml or ng/g
Compound 1 Concentration, Kidney ([4]; rat, 0.5 hr post dose): 3070 ng/ml or ng/g
Compound 1 Concentration, Liver ([4]; rat, 0.5 hr post dose): 8710 ng/ml or ng/g
Compound 1 Concentration, Lung ([4]; rat, 0.5 hr post dose): 2180 ng/ml or ng/g
Compound 1 Concentration, Plasma ([4]; rat, 0.5 hr post dose): 1760 ng/ml or ng/g
Compound 1 Concentration, Spleen ([4]; rat, 0.5 hr post dose): 1290 ng/ml or ng/g
Compound 1 Concentration, Brain ([4]; rat, 2 hr post dose): 129 ng/ml or ng/g
Compound 1 Concentration, CSF ([4]; rat, 2 hr post dose): 23.3 ng/ml or ng/g
Compound 1 Concentration, Heart ([4]; rat, 2 hr post dose): 3280 ng/ml or ng/g
Compound 1 Concentration, Kidney ([4]; rat, 2 hr post dose): 4980 ng/ml or ng/g
Compound 1 Concentration, Liver ([4]; rat, 2 hr post dose): 13700 ng/ml or ng/g
Compound 1 Concentration, Lung ([4]; rat, 2 hr post dose): 2710 ng/ml or ng/g
Compound 1 Concentration, Plasma ([4]; rat, 2 hr post dose): 1960 ng/ml or ng/g
Compound 1 Concentration, Spleen ([4]; rat, 2 hr post dose): 1790 ng/ml or ng/g
Compound 1 Concentration, Brain ([4]; rat, 7 hr post dose): 111 ng/ml or ng/g
Compound 1 Concentration, CSF ([4]; rat, 7 hr post dose): 27 ng/ml or ng/g
Compound 1 Concentration, Heart ([4]; rat, 7 hr post dose): 3100 ng/ml or ng/g
Compound 1 Concentration, Kidney ([4]; rat, 7 hr post dose): 4770 ng/ml or ng/g
Compound 1 Concentration, Liver ([4]; rat, 7 hr post dose): 11400 ng/ml or ng/g
Compound 1 Concentration, Lung ([4]; rat, 7 hr post dose): 2700 ng/ml or ng/g
Compound 1 Concentration, Plasma ([4]; rat, 7 hr post dose): 2210 ng/ml or ng/g
Compound 1 Concentration, Spleen ([4]; rat, 7 hr post dose): 491 ng/ml or ng/g
Compound 1 Concentration, Brain ([4]; rat, 24 hr post dose): 30 ng/ml or ng/g
Compound 1 Concentration, CSF ([4]; rat, 24 hr post dose): 5 ng/ml or ng/g
Compound 1 Concentration, Heart ([4]; rat, 24 hr post dose): 771 ng/ml or ng/g
Compound 1 Concentration, Kidney ([4]; rat, 24 hr post dose): 1600 ng/ml or ng/g
Compound 1 Concentration, Liver ([4]; rat, 24 hr post dose): 3010 ng/ml or ng/g
Compound 1 Concentration, Lung ([4]; rat, 24 hr post dose): 617 ng/ml or ng/g
Compound 1 Concentration, Plasma ([4]; rat, 24 hr post dose): 592 ng/ml or ng/g
Compound 1 Concentration, Spleen ([4]; rat, 24 hr post dose): 125 ng/ml or ng/g
Compound 1 Concentration, Brain ([4]; rat, 48 hr post dose): 9.35 ng/ml or ng/g
Compound 1 Concentration, CSF ([4]; rat, 48 hr post dose): BQL
Compound 1 Concentration, Heart ([4]; rat, 48 hr post dose): 196 ng/ml or ng/g
Compound 1 Concentration, Kidney ([4]; rat, 48 hr post dose): 673 ng/ml or ng/g
Compound 1 Concentration, Liver ([4]; rat, 48 hr post dose): 750 ng/ml or ng/g
Compound 1 Concentration, Lung ([4]; rat, 48 hr post dose): 185 ng/ml or ng/g
Compound 1 Concentration, Plasma ([4]; rat, 48 hr post dose): 141 ng/ml or ng/g
Compound 1 Concentration, Spleen ([4]; rat, 48 hr post dose): BQL
Tissue to Plasma Ratio, CSF ([4]; rat, 48 hr post dose): BQL
Kp ([4]; rat, brain and CSF, relative to plasma, male rats, read-out: brain and CSF exposure, % of the plasma exposure): < 0.001
Cmax ([4]; rat, cerebrospinal fluid (CSF), male rats): 27 ng/mL
